The test system of one test is platelet. The experiment in a line: Blood platelet aggregation inhibiting effect (collagen-induced). The conditions noted are these: Oryctolagus cuniculus, Platelet; 10^-4 mole, collagen inducer, rabbit PRP; read-out: Blood platelet agg. inh.: percentage inhibition of platelet aggregation. It is filed as cell-based, rabbits. An excerpt: Male rabbits (Japan original white strain 3.3 to 3.6 kg) were anesthetized with Thiopental sodium and blood was sampled from the carotid artery.

Another test relates to hind paws of male rats. Kind of test: Anti-inflammatory effect: acute carragheenin edema method. Format: in vivo. The conditions noted are these: Rattus norvegicus, read-out: Anti-inf.: edema inhibition rate. As to the method: The edema was induced by subcutaneous injection of 1% carragheenin suspension in saline to the hind paws of male rats weighting 150 to 180 g. Each sample was orally given at the dosage of 100 mg/kg just before the inoculation of carragheenin.

Another test concerns thrombus. Kind of test: Inhibiting effect on thrombosis (by-pass between left juglar vein and right carotid artery, silk thread). The conditions noted are these: Rattus norvegicus, read-out: Thrombosis inh.: thrombosis inhibition rate. It is filed as in vivo, SD type male rates. As to the method:
The inhibiting effects of the samples of the invention on thrombosis were tested by the following test method.
A 0.5 ml of 50 μ/ml of the heparin physiological saline was added through the polyethylene tube before the first blood circulation. After the blood circulation for 15 minutes, the circulation was stopped in the middle of the tubing at artery side with a pinch cock.
Then, 0.2 ml of the heparin physiological saline was added to remove the blood coagulates on the tubing wall and another new polyethylene tubing filled with the heparin solution and containing a piece of new silk thread was attached between the venous and artery tubing ends.
The blood circulation was reestablished by opening the pinch cock. After 15 minutes, the wet weight of thrombus on the silk thread was similarly measured.
In the same manner, the third circulation was performed and wet weight of thrombus measured.
The amount of thrombus was given by the equation A. [formula] Each sample was suspended in an aqueous solution of sodium carboxymethyl cellulose and the oral dose of the suspension (100 mg/kg) was performed at 5 hours before the first blood circulation.
The amount of thrombus after the oral dose of the sample was calculated in the same manner as that of control circulations.
The thrombosis inhibition rate was given by the equation B. [formula]

In the next test the test system is male mice. Kind of test: Analgesic effect: painful stretchings following intraperitoneal 0.7% acetic acid. The note with it: Mus musculus, po, read-out: Analgesic: percentage diminition of times of painful stretching.
[1] abbreviates: 100 mg/kg oral, carragheenin edema, male rats (Table 2).
The mark [2] stands for this setting: 100 mg/kg oral, 5 hours before first blood circulation, rats.

Here are results for 34 compounds from patent publication US4145444A, “Anti-inflammatory agent of benzoyl derivative” (priority 1977, dated 1979).

Where two headings read alike, the source gives them in different places.

In general, inhibition refers to the change of the read-out against control, counted positive when it falls.

Protocol for male mice: Each sample was orally administered in the dosage of 100 mg/kg before injection of acetic acid.

Take `CCCCCCc1ccc(C(=O)c2c(C)cc(C)cc2C)cc1` [compound 103]: the inhibition at 100 µM with platelet stood at 29.5%. Besides, the figures for the inhibition in vivo at 100 mg/kg in the test on hind paws of male rats (setting [1]), in the test on thrombus (setting [2]) and in the test on male mice were 29.7%, 35.8% and 14.2%, respectively.
The like results for `CCCCc1ccc(C(=O)c2ccc(Cl)cc2)cc1` [compound 64] were, in that order, 28.5%, 21.4%, 15.9% and 6.6%.
Taken in the same sequence, the figures for `COc1ccc(OC)c(C(=O)c2ccccc2)c1` [compound 75] were 30.7%, 29.5%, 29.2% and 22%.
The like results for `Cc1cc(C)c(C(=O)c2ccc(Cl)cc2)c(C)c1` [compound 14] were, in that order, 18.1%, 37.3%, 23.3% and 19.2%.
As to `COc1ccc(C(=O)c2ccccc2)c(OC)c1` [compound 74], the inhibition at 100 µM in the test with platelet turned out to be 18.5%. Besides, the inhibition in vivo at 100 mg/kg in the test with hind paws of male rats (setting [1]) came out at 30.2%; with thrombus (setting [2]), 28.9%; in the test on male mice, 24.2%.
Consider `CCc1ccc(C(=O)C(=O)c2ccccc2)cc1` [compound 55], for which the inhibition at 100 µM in the test with platelet came out at 23.3%. Moreover, the figures for the inhibition in vivo at 100 mg/kg with hind paws of male rats (setting [1]), in the test on thrombus (setting [2]) and in the test with male mice were 29%, 16.4% and 15.8%, respectively.
Take `CCCCCCCCCCc1ccc(C(=O)Cc2ccccc2)cc1` [compound 50]: the inhibition at 100 µM in the test with platelet came to 8.7%. Also, the inhibition in vivo at 100 mg/kg came to 25.5% in the test with hind paws of male rats (setting [1]), 28.3% in the test on thrombus (setting [2]) and 16.4% in the test with male mice.
For `CCCCCc1ccc(C(=O)c2ccc(C)cc2)cc1` [compound 84], the inhibition at 100 µM with platelet came out at 8.6%. Besides, the inhibition in vivo at 100 mg/kg in the test on hind paws of male rats (setting [1]) is 28.4%; in the test with thrombus (setting [2]), 16%; in the test on male mice it was 15.3%.
On to `CCCCCc1ccc(C(=O)c2ccccc2C)cc1` [compound 41], for which, in the test on platelet, the inhibition at 100 µM is 14.4%. For the same compound, the inhibition in vivo at 100 mg/kg in the test with hind paws of male rats (setting [1]) was determined as 47.4%; with thrombus (setting [2]) it was 28.5%; with male mice it was 14.6%.
Consider `CCCCCc1ccc(C(=O)c2cccc(C)c2)cc1` [compound 89], for which the inhibition at 100 µM in the test on platelet stood at 22.6%. In addition, the inhibition in vivo at 100 mg/kg in the test on hind paws of male rats (setting [1]) was determined as 27.6%; in the test with thrombus (setting [2]), 13.2%; in the test with male mice, 4.3%.
The like results for `CCOc1ccc(C(=O)c2ccccc2)cc1` [compound 81] were, in that order, 18.3%, 15.3%, 20.3% and 17.6%.
As to `O=C(c1ccccc1)c1ccccc1C(=O)c1ccccc1` [compound 113], the inhibition at 100 µM in the test with platelet stood at 25.8%. Also, the figures for the inhibition in vivo at 100 mg/kg with hind paws of male rats (setting [1]), with thrombus (setting [2]) and in the test with male mice were 38.7%, 30.4% and 14.5%, respectively.
The like results for `COc1cc(OC)c(C(=O)c2ccccc2)c(OC)c1` [compound 76] were, in that order, 16.2%, 15.7%, 18.4% and 13.9%.
The like results for `Cc1ccc(C(=O)c2ccccc2)c(C)c1C` [compound 31] were, in that order, 18.2%, 35.4%, 23.5% and 9.5%.
The like results for `CCCCc1ccc(C(=O)C(=O)c2ccccc2)cc1` [compound 29] were, in that order, 11.1%, 44.7%, 15.3% and 2.7%.
Regarding `Cc1ccc(C(=O)C(=O)c2ccccc2)cc1` [compound 54], the inhibition at 100 µM in the test on platelet turned out to be 15.4%. In addition, the inhibition in vivo at 100 mg/kg in the test with hind paws of male rats (po) came out at 25.5%; in the test with thrombus (po, 5 h), 20.3%; in the test on male mice, 11.3%.
On to `CCCCc1ccc(C(=O)c2ccccc2F)cc1` [compound 8], for which the inhibition at 100 µM in the test on platelet amounted to 24%. Moreover, the figures for the inhibition in vivo at 100 mg/kg with hind paws of male rats (setting [1]), in the test with thrombus (setting [2]) and in the test with male mice were 82.6%, 38% and 14.8%, respectively.
`CCCc1ccc(C(=O)c2c(C)cc(C)cc2C)cc1` [compound 97]: the inhibition at 100 µM in the test with platelet is 26.8%. For the same compound, the inhibition in vivo at 100 mg/kg came to 13% in the test with hind paws of male rats (setting [1]), 37.3% with thrombus (setting [2]) and 14.7% in the test on male mice.
Take `Cc1cc(C)c(C(=O)c2ccccc2)cc1C` [compound 32]: in the test with platelet, the inhibition at 100 µM was 12.4%. In addition, the inhibition in vivo at 100 mg/kg with hind paws of male rats (setting [1]) came out at 47.7%; with thrombus (setting [2]), 25%; in the test with male mice, 26.2%.
The like results for `CCCCCCOc1ccc(C(=O)Cc2ccc(Cl)cc2)cc1` [compound 62] were, in that order, 12.3%, 12.5%, 7.8% and 10.2%.
The like results for `C=Cc1ccc(C(=O)c2ccccc2)cc1` [compound 82] were, in that order, 20.5%, 23.8%, 30.1% and 13.5%.
Taken in the same sequence, the figures for `Cc1ccccc1C(=O)c1c(C)c(C)cc(C)c1C` [compound 91] were 14.7%, 21.4%, 31% and 15.2%.
As to `CCCCCCCCc1ccc(C(=O)c2ccccc2)cc1` [compound 26], the inhibition at 100 µM in the test on platelet worked out at 3.1%. For the same compound, the values for the inhibition in vivo at 100 mg/kg in the test with hind paws of male rats (setting [1]), in the test on thrombus (setting [2]) and in the test on male mice were 47.2%, 24.8% and 35.9%, respectively.
As for `Cc1cc(C)c(C(=O)c2ccccc2F)c(C)c1` [compound 11], in the test on platelet, the inhibition at 100 µM came to 16.5%. Further, the results for the inhibition in vivo at 100 mg/kg in the test with hind paws of male rats (setting [1]), in the test on thrombus (setting [2]) and in the test with male mice were 62.3%, 42.9% and 13.9%, respectively.
As to `CCCc1ccc(C(=O)c2ccc(C)cc2)cc1` [compound 34], in the test on platelet, the inhibition at 100 µM came to 16.4%. The figures for the inhibition in vivo at 100 mg/kg in the test on hind paws of male rats (setting [1]), with thrombus (setting [2]) and with male mice were 43.1%, 24.5% and 12.1%, respectively.
Taken in the same sequence, the figures for `Cc1cc(C)c(C(=O)c2ccc(O)cc2)c(C)c1` [compound 108] were 28.4%, 10.5%, 34.7% and 3.1%.
Consider `O=C(C(=O)c1ccccc1)c1ccccc1` [compound 53], for which the inhibition at 100 µM with platelet is 10.1%. In addition, the inhibition in vivo at 100 mg/kg with hind paws of male rats (po) was found to be 20.3%; in the test with thrombus (po, 5 h), 19.2%; with male mice, 14.2%.
Turning to `Cc1ccc(C(=O)c2ccccc2F)c(C)c1` [compound 10], the inhibition at 100 µM in the test on platelet came out at 18.5%. Besides, the figures for the inhibition in vivo at 100 mg/kg in the test with hind paws of male rats (setting [1]), in the test on thrombus (setting [2]) and with male mice were 47.5%, 29.7% and 20.3%, respectively.
Taken in the same sequence, the figures for `O=C(c1ccc(F)cc1)c1ccccc1Cl` [compound 115] were 25.4%, 14.5%, 27.5% and 11.8%.
For `CCCc1ccc(CCC)c(C(=O)c2ccccc2)c1` [compound 16], in the test with platelet, the inhibition at 100 µM was 8.6%. Also, the inhibition in vivo at 100 mg/kg was found to be 45.2% in the test on hind paws of male rats (setting [1]), 21.5% with thrombus (setting [2]) and 12.4% in the test with male mice.
Taken in the same sequence, the figures for `CCCc1ccc(C(=O)c2ccccc2C)cc1` [compound 90] were 10.8%, 19.7%, 15% and 13.7%.
The like results for `CCCCOc1ccc(C(=O)c2ccccc2)cc1` [compound 42] were, in that order, 4.4%, 35.8%, 10.7% and 26.8%.
The like results for `CCCCOc1ccc(C(=O)Cc2ccc(Cl)cc2)cc1` [compound 61] were, in that order, 15.8%, 16.7%, 8.5% and 15.1%.
For the compound `CCCCCc1ccc(C(=O)c2ccccc2)cc1` [compound 23], the inhibition at 100 µM in the test with platelet was 13.8%. The inhibition in vivo at 100 mg/kg in the test with hind paws of male rats (setting [1]) came to 50.4%; in the test on thrombus (setting [2]), 22.3%; in the test with male mice, 10.1%.
